# Earlier results as cited in US6004532A, “Formulation for Tin-^117m /diethylenetriaminepentaacetic acids” (Brookhaven Science Associates, priority 1998, dated 1999).
# How the values were obtained:
# bone marrow = details: for contamination and radiation cystitis risk: therapeutic doses
Compound,"palliation of bone pain (bone pain; Phase II pilot study, Atkins et al. (1995))","relief of bone pain in humans (bone pain; particular efficacy at about 9 to about 25 mCi per 70 kg, WO 95/29706)","bone uptake and retention compared with ^32 P orthophosphate, ^153 Sm-EDTMP, ^186 Re-HEDP, and ^89 SrCl2 (human, in vivo)",contamination and radiation cystitis risk (bone marrow),"duration of pain relief (bone pain; human, in vivo)","onset of clinical benefit / pain relief (bone pain; human, in vivo)","onset of clinical benefit / symptom relief (frequently) (bone pain; human, in vivo)",urinary excretion of radioactivity (therapeutic doses 35 to 210 mCi),"myelosuppression (bone marrow; human, in vivo)","onset of pain relief (bone pain; pretreatment with androgen, after administration)"
^117m Sn (Sn^4+) diethylenetriaminepentaacetic acid [^117m Sn (Sn^4+) DTPA],palliation of bone pain,dose-dependent relief of bone pain,higher bone uptake and retention,less risk of contamination and radiation cystitis,,,,,,
"O=P([O-])(O)CN(CCN(CP(=O)([O-])O)CP(=O)(O)O)CP(=O)([O-])O.[153Sm+3] [^153 Sm-EDTMP, ^153 Sm ethylenediaminetetramethylenephosphonate]",,,,creating contamination risks and potentially causing radiation cystitis,four to forty,two,≤ 48 h,large amounts of radioactivity can be excreted in the patient's urine,Reversible myelosuppression,
O=[32P](O)(O)O [^32 P orthophosphate],,,,,,,,,,five to fourteen
